Laboratory results taken from ChEMBL document CHEMBL1201862, “PubChem BioAssay data set” (2004).
The source made the active and inactive calls.

What was measured:
Beta-galactosidase = Beta-galactosidase (Escherichia coli, UniProt Q8VNN2); assay: Dose response counterscreen for EBI2 assay utilizing the enzyme, b-galactosidase.; type: functional
Protein Wnt-3a = Protein Wnt-3a (Mus musculus, UniProt P27467); assay: SAR analysis of small molecule antagonists of Gli-SUFU in a Wnt3a luminescent reporter assay.; type: functional
cells [1] = type: functional, cell-based
[2] = target: T1, Trace amine-associated receptor 1 (Homo sapiens, UniProt Q96RJ0); assay: Fluorescence-based cell-based high throughput dose response assay to identify agonists of the human trace amine associated receptor 1 (TAAR1).; type: functional
T1 sequence (Q96RJ0 whole entry): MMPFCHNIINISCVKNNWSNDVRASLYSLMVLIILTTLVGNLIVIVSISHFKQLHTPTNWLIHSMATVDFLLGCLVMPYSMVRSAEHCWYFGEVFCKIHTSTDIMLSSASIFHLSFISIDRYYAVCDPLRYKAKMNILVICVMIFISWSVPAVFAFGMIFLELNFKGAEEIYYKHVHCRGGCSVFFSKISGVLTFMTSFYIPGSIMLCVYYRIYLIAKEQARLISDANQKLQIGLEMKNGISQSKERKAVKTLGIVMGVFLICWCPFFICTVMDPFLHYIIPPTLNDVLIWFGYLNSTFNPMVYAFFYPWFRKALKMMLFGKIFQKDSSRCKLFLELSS

[3] = target: T1, Trace amine-associated receptor 1; assay: Counterscreen for agonists of the human trace amine associated receptor 1 (hTAAR1): Fluorescence-based cell-based high throughput dose response assay to identify hTAAR1 agonist that also desensitize TAAR1 receptor response.; type: functional
cells [4] = type: functional, cell-based; remark: listed apart in the source
[5] = target: T2, Replicative DNA helicase DnaB (Mycobacterium tuberculosis, UniProt P9WMR3); assay: DnaB intein splicing inhibitors, dose response, biochemical, cell-free fluorescence (AID 449749); type: functional
T2 sequence (P9WMR3 whole entry): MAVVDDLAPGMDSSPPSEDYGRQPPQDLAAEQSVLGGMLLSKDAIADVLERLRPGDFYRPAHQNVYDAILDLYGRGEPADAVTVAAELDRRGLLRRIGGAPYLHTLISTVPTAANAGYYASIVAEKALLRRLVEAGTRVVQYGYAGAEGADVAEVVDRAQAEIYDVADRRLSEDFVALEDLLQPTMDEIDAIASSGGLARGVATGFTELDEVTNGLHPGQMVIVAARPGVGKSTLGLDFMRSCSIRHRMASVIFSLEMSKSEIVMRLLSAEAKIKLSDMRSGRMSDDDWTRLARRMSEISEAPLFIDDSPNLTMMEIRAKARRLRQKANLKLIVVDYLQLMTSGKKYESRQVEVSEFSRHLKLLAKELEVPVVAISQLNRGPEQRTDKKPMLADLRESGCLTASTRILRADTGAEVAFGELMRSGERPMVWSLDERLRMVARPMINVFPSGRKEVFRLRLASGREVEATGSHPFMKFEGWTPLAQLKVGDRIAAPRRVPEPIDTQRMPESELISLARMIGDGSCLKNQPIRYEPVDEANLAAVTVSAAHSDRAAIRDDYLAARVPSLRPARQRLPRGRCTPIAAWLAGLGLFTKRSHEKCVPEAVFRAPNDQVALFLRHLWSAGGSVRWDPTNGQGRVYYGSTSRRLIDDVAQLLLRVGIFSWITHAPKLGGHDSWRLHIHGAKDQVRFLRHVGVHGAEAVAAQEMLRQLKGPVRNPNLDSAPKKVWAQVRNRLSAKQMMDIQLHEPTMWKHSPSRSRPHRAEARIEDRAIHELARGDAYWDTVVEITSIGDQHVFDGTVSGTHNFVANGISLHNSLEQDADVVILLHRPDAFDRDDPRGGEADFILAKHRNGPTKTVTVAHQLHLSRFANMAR

[6] = target: T3, Apoptotic protease-activating factor 1 (Homo sapiens, UniProt O14727); type: functional
T3 sequence (O14727 whole entry): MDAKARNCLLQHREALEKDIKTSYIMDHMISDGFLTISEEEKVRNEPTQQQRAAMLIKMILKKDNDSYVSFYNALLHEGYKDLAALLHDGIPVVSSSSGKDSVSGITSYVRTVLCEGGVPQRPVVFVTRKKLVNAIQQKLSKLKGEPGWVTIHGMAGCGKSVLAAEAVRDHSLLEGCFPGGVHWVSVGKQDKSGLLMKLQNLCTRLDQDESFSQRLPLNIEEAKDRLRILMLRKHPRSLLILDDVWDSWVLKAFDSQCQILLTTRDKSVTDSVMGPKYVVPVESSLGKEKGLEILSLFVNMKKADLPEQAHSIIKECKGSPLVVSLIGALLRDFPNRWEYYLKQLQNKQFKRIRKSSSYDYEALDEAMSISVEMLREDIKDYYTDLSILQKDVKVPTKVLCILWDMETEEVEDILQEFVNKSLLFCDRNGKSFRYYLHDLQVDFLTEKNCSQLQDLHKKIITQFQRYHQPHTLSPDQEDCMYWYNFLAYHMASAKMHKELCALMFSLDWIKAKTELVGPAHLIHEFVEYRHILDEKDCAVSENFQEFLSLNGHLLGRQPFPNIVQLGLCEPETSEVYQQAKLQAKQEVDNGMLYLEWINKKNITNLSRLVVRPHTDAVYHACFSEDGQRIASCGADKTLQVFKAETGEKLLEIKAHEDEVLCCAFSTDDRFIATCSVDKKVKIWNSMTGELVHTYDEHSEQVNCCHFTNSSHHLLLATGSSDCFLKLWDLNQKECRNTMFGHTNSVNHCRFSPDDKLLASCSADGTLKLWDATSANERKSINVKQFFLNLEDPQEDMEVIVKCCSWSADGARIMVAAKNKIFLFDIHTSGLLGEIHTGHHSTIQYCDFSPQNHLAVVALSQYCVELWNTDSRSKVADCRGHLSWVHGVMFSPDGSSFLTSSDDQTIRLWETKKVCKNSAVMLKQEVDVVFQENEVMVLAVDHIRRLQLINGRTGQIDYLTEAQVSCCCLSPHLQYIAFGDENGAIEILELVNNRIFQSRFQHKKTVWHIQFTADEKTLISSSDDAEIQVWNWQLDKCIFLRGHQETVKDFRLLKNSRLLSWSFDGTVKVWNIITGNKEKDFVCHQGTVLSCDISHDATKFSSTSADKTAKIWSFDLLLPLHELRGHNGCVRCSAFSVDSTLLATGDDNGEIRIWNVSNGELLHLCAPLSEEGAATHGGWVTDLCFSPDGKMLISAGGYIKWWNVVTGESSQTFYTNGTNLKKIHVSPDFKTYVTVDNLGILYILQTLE

Protein RecA = target: T4, Protein RecA (Mycobacterium tuberculosis, UniProt P9WHJ3); assay: Fluorescence Cell-Free Homogeneous Dose Retest to Identify Inhibitors of RecA-Intein Splicing Activity. [Related pubchem assays (depositor defined):AID2097, AID2223, AID489010, AID492950]; type: functional
T4 sequence (P9WHJ3 whole entry): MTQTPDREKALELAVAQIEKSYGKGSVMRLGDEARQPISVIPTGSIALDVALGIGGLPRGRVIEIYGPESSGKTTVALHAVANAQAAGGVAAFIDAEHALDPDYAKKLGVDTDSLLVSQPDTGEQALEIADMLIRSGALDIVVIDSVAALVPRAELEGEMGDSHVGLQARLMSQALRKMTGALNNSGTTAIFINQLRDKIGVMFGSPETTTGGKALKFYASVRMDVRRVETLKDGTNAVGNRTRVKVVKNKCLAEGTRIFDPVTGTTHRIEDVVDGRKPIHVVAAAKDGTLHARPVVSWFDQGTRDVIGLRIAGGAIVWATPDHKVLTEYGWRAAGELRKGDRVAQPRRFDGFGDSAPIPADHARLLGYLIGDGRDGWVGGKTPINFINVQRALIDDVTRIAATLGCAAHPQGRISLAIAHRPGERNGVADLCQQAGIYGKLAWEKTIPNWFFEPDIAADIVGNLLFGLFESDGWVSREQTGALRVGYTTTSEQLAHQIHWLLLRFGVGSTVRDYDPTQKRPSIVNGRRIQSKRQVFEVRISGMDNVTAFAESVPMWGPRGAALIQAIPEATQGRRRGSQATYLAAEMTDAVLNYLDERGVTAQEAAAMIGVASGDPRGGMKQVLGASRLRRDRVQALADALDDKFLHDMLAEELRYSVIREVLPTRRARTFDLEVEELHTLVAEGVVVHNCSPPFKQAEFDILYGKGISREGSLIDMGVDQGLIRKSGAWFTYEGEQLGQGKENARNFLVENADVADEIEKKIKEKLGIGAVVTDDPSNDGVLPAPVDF

[7] = target: T5, Mitochondrial peptide methionine sulfoxide reductase (Bos taurus, UniProt P54149); type: functional;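 note: absorbance read-out, biochemical high-throughput dose-response screen for MsrA inhibitors, confirmatory; recombinant bovine MsrA coupled to E. coli TrxB with NADPH and selenocystamine; potency is for inhibitors of MsrA activity on DMSO substrate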
T5 sequence (P54149 whole entry): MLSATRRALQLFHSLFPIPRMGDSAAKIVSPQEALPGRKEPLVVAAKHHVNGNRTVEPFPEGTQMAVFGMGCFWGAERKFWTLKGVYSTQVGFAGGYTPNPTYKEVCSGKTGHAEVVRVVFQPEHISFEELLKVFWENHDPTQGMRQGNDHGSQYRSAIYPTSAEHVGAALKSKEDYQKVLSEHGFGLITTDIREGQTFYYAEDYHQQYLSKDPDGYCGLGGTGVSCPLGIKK

[8] = target: T6, Heat shock factor protein 1 (Mus musculus, UniProt P38532); assay: HSF1 potentiators in luciferase reporter cells, confirmation, cell-based, NIH3T3, luminescence, dose retest (AID 435004); type: functional;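 note: stress induced by proteasome inhibitor MG132 added 30 min after compound; luciferase reporter driven by HSF1 response element in NIH3T3 cells; actives raise luminescence as potentiators of the MG132 stress response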
T6 sequence (P38532 whole entry): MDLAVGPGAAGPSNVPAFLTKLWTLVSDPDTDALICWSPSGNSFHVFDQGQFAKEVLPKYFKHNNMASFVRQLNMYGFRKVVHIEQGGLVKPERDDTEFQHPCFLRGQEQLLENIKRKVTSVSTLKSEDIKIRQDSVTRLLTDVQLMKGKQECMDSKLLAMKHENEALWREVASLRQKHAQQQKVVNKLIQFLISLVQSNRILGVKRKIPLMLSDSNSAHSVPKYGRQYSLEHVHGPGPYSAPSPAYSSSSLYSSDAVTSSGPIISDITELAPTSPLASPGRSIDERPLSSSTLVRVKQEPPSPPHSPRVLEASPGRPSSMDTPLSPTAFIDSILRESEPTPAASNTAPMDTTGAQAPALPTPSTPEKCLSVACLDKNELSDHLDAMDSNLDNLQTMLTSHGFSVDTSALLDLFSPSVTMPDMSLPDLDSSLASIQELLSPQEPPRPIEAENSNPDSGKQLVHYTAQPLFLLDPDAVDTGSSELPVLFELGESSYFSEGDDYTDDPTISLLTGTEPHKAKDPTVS

[9] = target: T7, DNA repair protein RAD52 homolog (Homo sapiens, UniProt P43351); type: functional, biochemical
T7 sequence (P43351 whole entry): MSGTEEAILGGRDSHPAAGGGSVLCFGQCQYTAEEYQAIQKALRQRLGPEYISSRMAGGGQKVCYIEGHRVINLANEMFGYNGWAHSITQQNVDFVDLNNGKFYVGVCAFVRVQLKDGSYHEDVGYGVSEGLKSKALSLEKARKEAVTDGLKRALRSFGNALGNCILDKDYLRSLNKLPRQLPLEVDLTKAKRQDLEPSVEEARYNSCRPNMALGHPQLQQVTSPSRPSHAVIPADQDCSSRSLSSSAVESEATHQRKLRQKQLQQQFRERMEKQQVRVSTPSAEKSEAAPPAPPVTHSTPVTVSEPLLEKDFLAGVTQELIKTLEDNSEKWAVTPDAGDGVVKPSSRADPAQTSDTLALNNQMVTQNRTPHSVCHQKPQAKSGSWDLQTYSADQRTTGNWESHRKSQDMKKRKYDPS

Sequence of Protein Wnt-3a (P27467 whole entry): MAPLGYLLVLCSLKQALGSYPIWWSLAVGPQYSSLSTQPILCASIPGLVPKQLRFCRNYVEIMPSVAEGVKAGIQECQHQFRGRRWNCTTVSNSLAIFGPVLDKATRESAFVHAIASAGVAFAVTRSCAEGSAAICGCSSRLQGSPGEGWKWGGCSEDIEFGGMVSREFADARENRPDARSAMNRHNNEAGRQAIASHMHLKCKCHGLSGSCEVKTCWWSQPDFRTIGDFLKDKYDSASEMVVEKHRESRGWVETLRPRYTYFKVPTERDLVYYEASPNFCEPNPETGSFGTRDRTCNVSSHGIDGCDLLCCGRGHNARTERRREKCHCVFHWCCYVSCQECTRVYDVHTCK
Sequence of Beta-galactosidase (Q8VNN2 whole entry): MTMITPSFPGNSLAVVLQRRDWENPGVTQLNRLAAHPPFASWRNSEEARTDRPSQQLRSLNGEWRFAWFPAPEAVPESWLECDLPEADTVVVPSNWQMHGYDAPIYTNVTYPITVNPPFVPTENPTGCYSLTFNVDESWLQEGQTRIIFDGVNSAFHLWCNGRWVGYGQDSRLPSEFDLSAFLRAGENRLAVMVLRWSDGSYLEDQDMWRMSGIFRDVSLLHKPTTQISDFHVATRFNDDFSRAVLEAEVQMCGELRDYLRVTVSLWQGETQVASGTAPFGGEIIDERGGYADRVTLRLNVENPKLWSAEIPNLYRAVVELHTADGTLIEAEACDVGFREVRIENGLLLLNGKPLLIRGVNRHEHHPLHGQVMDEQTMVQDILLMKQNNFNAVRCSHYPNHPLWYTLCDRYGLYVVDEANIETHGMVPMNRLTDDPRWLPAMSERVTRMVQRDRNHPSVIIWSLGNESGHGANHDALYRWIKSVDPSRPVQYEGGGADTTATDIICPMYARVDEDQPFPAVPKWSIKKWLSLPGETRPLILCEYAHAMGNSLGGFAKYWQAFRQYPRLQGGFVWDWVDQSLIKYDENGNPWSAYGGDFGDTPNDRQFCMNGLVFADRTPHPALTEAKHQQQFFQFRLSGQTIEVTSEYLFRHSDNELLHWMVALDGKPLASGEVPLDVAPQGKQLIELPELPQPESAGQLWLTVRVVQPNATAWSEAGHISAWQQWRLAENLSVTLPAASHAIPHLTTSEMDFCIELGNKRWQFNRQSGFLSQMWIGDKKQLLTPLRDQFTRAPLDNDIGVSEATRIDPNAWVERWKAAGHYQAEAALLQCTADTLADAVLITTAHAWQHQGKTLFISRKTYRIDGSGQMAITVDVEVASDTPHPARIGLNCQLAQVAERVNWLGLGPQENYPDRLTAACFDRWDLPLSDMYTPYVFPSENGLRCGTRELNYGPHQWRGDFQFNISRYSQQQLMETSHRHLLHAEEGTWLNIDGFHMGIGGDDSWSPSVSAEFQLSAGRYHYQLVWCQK

CCOC(=O)N1CCN(C(=O)c2cc3c(s2)-c2c(C)cccc2OC3)CC1
IC50 (Beta-galactosidase): > 80 µM (inactive)

CCN(CC)c1cc(NC(=O)c2cccc(F)c2)ncn1
IC50 (Protein Wnt-3a): > 21.8 µM (inactive)

CC(=NCCc1ccccc1)C1=C(O)OCC1
IC50 (cells [1]): > 30 µM (inactive)
EC50 [2]: 0.65 µM (active)
IC50 [3]: 2.35 µM (active)
EC50 (cells [4]): > 30 µM (inactive)

Cc1nc(NC(=O)c2ccccc2)cc(N2CCCC2)n1
IC50 (Protein Wnt-3a): > 21.8 µM (inactive)

Cn1c(=O)c(=O)n(C)c2cc(S(=O)(=O)NCCc3ccccc3)ccc21
IC50 (cells [1]): > 29.9 µM (inactive)
EC50 [2]: 2.21 µM (active)
IC50 [3]: 8.95 µM (active)
EC50 (cells [4]): > 29.9 µM (inactive)

O=C(Nc1cc(N2CCCCC2)ncn1)c1ccsc1
IC50 (Protein Wnt-3a): > 21.8 µM (inactive)

Cc1ccc(Nc2ccc(C(=O)NC3CCCCC3)cn2)cc1
IC50 (Beta-galactosidase): > 80 µM (inactive)

O=C(O)c1cccc(NC2=C(n3nnc4ccccc43)C(=O)c3ccccc3C2=O)c1
AC50 [5]: 2.53 µM (active)
IC50 [6]: 10.9 µM (active)
EC50 (Protein RecA): 2.26 µM (active)
IC50 [7]: 31.4 µM (inactive)

O=C(CSc1ccc(Cl)cc1)N1CCN(c2c(Cl)cccc2[N+](=O)[O-])CC1
EC50 [8]: 14.8 µM (active)
IC50 (Beta-galactosidase): > 80 µM (inactive)

CCn1c(C)nc2cc(C(=O)NNC(=O)Nc3ccc(Cl)cc3)ccc21
IC50 (cells [1]): > 29.9 µM (inactive)
EC50 [2]: > 29.9 µM (inactive)
IC50 [3]: > 29.9 µM (inactive)
EC50 (cells [4]): > 29.9 µM (inactive)

CCCCCCCCCCCCCCCC[n+]1ccccc1
AC50 [9]: 4.21 µM (active)
